Patent US20070037739A1, “Compounds useful in coating stents to prevent and treat stenosis and restenosis” (Medlogics Device Corporation, priority 2003, published 2007)
In brackets after ≈: the same amount, converted by molar mass. Peptide text beside a SMILES is read from it.

Tests used:
U937 cells = experiment: TNF-induced DNA fragmentation in U937 cells; format: cell-based
Description: TNF-α-induced apoptosis in U937 monocytic leukemia cells can be used to evaluate the mechanism of apoptosis and its pharmacological manipulation in various diseases, including inflammation. This can be measured by internucleosomal DNA cleavage (Wright, S. C.; Kumar, P.; Tam, A. W.; Shen, N.; Varma, M.; Larrick, J. W. Apoptosis and DNA fragmentation precede TNF-induced cytolysis in U937 cells. J. Cell. Biochem., 1992, 48, 344-355). It has been shown that signal transduction pathways leading to apoptosis depend on the generation of free radicals (Buttke, T. M.; Sandstrom, P. A. Oxidative stress as a mediator of apoptosis. Immunol. Today, 1994, 15, 7-10) and alterations in the intracellular redox status through depletion of […] glutathione (GSH) (Ghibelli, L.; Coppola, S.; Rotilio, G.; Lafavia, E.; Maresca, V.; Ciriolo, M. R. Nonoxidative loss of gluthione in apoptosis via GSH extrusion. Biochem. Biophys. Res. Comm. 1995, 216, 313-320; van den Dobbelsteen, D. J.; Stefen, C.; Nobel, I.; Schlegel, J.; Cotgreave, I. A; Orrenius, S.; Slater, A. R. G. Rapid and specific efflux of reduced glutathione during apoptosis induced by anti-Fas/APO-1 antibody. J. Cell. Biochem., 1996, 271, 15420-15427).

[1] = Balloon-induced intimal injury (restenosis); format: in vivo; conditions: DAA-1 treated animals
Description: Following balloon-induced […] intimal injury, rats were give daily intravenous saline or DAA-I at 15, 30 or 45 pmol/kg×14d.

[2] = tested on: peripheral blood mononuclear cells (PBMNC); conditions: 100 μg/ml; mycobacterial 60 kDa heat shock protein 5 μg/ml; six RA patients; cited from earlier work
PBMNC = conditions: LPS- and PG-stimulated PBMNC, healthy human donors; cited from earlier work
neutrophils [3] = conditions: PMA- and zymosan-stimulated neutrophils, healthy human volunteers; cited from earlier work
neutrophils [4] = conditions: PMA-stimulated rat neutrophils; cited from earlier work
NADPH oxidase = molecular target: T1, NADPH oxidase (Homo sapiens, UniProt P04839); conditions: read-out: IC50 to inhibit NADPH oxidase activity; cited from earlier work
T1 sequence (P04839 2-570 limits assumed): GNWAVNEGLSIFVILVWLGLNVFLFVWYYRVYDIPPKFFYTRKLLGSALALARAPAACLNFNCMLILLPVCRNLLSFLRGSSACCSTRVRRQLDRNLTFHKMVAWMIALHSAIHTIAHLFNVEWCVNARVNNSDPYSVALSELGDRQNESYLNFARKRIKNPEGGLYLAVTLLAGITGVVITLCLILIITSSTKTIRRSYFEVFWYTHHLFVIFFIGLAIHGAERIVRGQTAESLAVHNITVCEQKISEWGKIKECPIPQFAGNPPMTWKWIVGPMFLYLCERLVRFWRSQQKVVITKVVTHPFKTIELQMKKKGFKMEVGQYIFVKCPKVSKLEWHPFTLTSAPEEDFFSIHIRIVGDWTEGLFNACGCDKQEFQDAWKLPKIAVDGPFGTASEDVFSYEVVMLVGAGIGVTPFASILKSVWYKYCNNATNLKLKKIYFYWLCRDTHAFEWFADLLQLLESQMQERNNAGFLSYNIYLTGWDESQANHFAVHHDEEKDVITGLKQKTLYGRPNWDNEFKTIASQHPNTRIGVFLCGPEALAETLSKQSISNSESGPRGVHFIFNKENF

peritoneal macrophages = conditions: cited from earlier work
J-774A.1 cells = conditions: cited from earlier work
[5] = cited from earlier work
[6] = injected, 400 mg/kg; cited from earlier work
[7] = 12 mg/d through inhalation for four days; cited from earlier work
human cartilage = conditions: in vitro; cited from earlier work
pulmonary macrophages = conditions: cited from earlier work
[8] = cited from earlier work; remark: listed apart in the source

In the case of COc1cc(C(C)=O)ccc1OC(C)=O [Compound 1, 4-Acetoxy-3-methoxyacetophenone], the “IC50 (μg/ml), protective effect against TNF-induced DNA fragmentation” value (“IC50 (μg/ml), protective effect” below) (U937 cells) is reported as 43 µg/mL (≈ 207 µM) and the “potency compared with apocynin (from IC50 values)” value (U937 cells) is reported as “more potent than apocynin”.

For COc1cc(C(C)=O)cc(NC(C)=O)c1O [Compound 4, 5-Acetoamido-4-hydroxy-3-methoxyacetophenone], the “IC50 (μg/ml), protective effect” value (U937 cells) was 37 µg/mL (≈ 166 µM) and the “potency compared with apocynin (from IC50 values)” value (U937 cells) was “more potent than apocynin”.

In the case of COc1cc(C(C)=O)cc(N)c1O.Cl [Compound 3, 5-Amino-4-hydroxy-3-methoxyacetophenone hydrochloride], the “IC50 (μg/ml), protective effect” value (U937 cells) is reported as 80 µg/mL.

In the case of COc1cc(C(C)=O)cc([N+](=O)[O-])c1O [Compound 2, 4-Hydroxy-3-methoxy-5-nitroacetophenone], the “IC50 (μg/ml), protective effect” value (U937 cells) is reported as 90 µg/mL (≈ 426 µM).

With CC[C@H](C)[C@H](NC(=O)[C@H](Cc1ccc(O)cc1)NC(=O)[C@@H](NC(=O)[C@@H](N)CCCNC(=N)N)C(C)C)C(=O)N[C@@H](Cc1c[nH]cn1)C(=O)N1CCC[C@H]1C(=O)N[C@@H](Cc1ccccc1)C(=O)N[C@@H](Cc1c[nH]cn1)C(=O)N[C@@H](CC(C)C)C(=O)O [DAA-I, Arg-Val-Tyr-IIe-His-pro-Phe-His-Leu] (H-RVYIHPFHL-OH) the toxicity [1] was “no appreciable toxicity was detected”.

For COc1cc(C(C)=O)ccc1O [apocynin], the IC50 (U937 cells; Homo sapiens, U-937, read-out: IC50 (μg/ml), protective effect against TNF-induced DNA fragmentation) is given as 64 µg/mL (≈ 385 µM), the “inhibition of production of IL-1” value [2] is given as “greater than 50%” and the “inhibition of production of TNF-α” value [2] is given as “greater than 50%”. For the same compound, the TNF-α release (PBMNC) was “dose-dependently inhibited”, the “concentration inhibiting ROS production by 50%” value (neutrophils [3]) was 4 µg/mL and the “production of ROS” value (neutrophils [4]) was “competitively inhibited, in a dose-dependent manner”. For the same compound, the IC50 (NADPH oxidase) was 9.6 µM, the oxidative burst (peritoneal macrophages; apocynin 10 mM 25 min before myelin and zymosan, controls 75%) was “about 5%” and the phagocytosis of myelin (peritoneal macrophages; rat peritoneal macrophages) was “dose-dependently inhibited”. The “release of superoxide to the medium” value (J-774A.1 cells; 100 μg/ml, cells+LDL+Cu2+ or cells+PMA) was “completely blocked”, the “macrophage-released superoxides, apocynin alone” value (J-774A.1 cells; non-activated cells) was 0.2 nmol superoxide/10^6 cells and the “joint inflammation at lowest dose” value ([5]; 24 μg/kg) was “protected the animals against joint inflammation”. For the same compound, the “joint swelling at highest dose” value ([5]; 200 μg/ml) was “again inhibited joint swelling”, the joint inflammation ([5]; CIA rats, overall) was “significantly inhibited” and the IL-6 production ([5]; CIA rats) was “reduced IL-6 production”. For the same compound, the “swelling after termination of treatment” value ([5]; CIA rats) was “did not result in a flare-up of the swelling”, the “obvious effects on the mice” value [6] was “no obvious effects” and the side effects [7] was “no side effects”. The “cartilage destruction and adverse effects on cartilage” value (human cartilage) was “can counteract human RA-inflammation-mediated cartilage destruction without having adverse effects on human cartilage”, the “production of prostaglandin E2” value (pulmonary macrophages) was “increases the production of prostaglandin E2” and the “decrease of glutathione levels induced by ozone exposure” value ([8]; 5 mg/kg orally, pretreatment) was “almost completed inhibited”. The “mean redox value (glutathione)” value ([8]; apocynin pretreatment, air 15.4%, ozone 32.0%) was 18.3%.
